From ChEMBL document CHEMBL1201862, “PubChem BioAssay data set” (2004)
Active and inactive are the calls of the source.

Tests used:
[1] = biological target: T1, High affinity choline transporter 1 (Homo sapiens, UniProt Q9GZV3); assay: CHT inhibitors, dose response, cell-based, 10-point CRC, membrane potential dye (AID 588401); assay type: functional;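 also: membrane potential dye fluorescence of choline-evoked depolarization via CHT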
[2] = biological target: T1, High affinity choline transporter 1; assay: CHT inhibitors, dose response, cell-based, 5-point CRC, membrane potential dye (AID 504840); assay type: functional
[3] = biological target: T2, DNA dC->dU-editing enzyme APOBEC-3G (Homo sapiens, UniProt Q9HC16); assay: SAR analysis of small molecule inhibitors of APOBEC3G DNA Deaminase via a fluorescence-based single-stranded DNA deaminase assay - Set 2.; assay type: functional; conditions: read-out: IC50_Mean
T2 sequence (Q9HC16 whole entry): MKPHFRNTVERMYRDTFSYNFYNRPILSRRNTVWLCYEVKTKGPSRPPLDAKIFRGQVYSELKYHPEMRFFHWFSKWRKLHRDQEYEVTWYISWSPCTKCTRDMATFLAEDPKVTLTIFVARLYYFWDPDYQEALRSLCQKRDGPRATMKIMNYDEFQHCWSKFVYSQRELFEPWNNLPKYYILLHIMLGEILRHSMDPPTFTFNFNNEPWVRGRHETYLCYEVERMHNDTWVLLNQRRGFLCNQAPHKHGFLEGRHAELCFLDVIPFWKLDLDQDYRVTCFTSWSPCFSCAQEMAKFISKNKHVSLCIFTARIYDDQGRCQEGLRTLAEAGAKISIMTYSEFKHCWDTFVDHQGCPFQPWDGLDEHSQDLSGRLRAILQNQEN

[4] = biological target: T2, DNA dC->dU-editing enzyme APOBEC-3G; assay: Dose Response confirmation of small molecule APOBEC3G DNA Deaminase Inhibitors via a fluorescence-based single-stranded DNA deaminase assay. [Related pubchem assays (depositor defined):AID493012, AID493028]; assay type: functional
[5] = biological target: T3, DNA dC->dU-editing enzyme APOBEC-3A (Homo sapiens, UniProt P31941); assay: APOBEC3A DNA deaminase inhibitors, dose response, biochemical (AID 504722); assay type: functional
T3 sequence (P31941 whole entry): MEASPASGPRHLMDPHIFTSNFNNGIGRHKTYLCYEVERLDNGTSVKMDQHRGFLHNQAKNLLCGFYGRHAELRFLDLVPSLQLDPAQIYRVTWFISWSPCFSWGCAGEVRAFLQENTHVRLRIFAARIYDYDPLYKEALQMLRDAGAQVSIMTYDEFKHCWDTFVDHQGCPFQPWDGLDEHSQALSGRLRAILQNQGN

[6] = biological target: T3, DNA dC->dU-editing enzyme APOBEC-3A; assay: SAR analysis of small molecule inhibitors of APOBEC3A DNA Deaminase via a fluorescence-based single-stranded DNA deaminase assay - Set 2.; assay type: functional; conditions: read-out: IC50_Mean
Large T antigen = Large T antigen (Simian virus 40, UniProt P03070); assay type: functional, Betapolyomavirus macacae;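 also: Confirmatory-stage PubChem screen for compounds that inhibit SV40 T antigen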
[7] = tested on: Streptococcus sp. 'group A'; assay: growth inhibition of control SK(-) GAS strain, dose response, counter-screen for streptokinase expression inhibitor project, luminescence, kanamycin, BacTiterGlo, confirmation (AID 1900); assay type: functional, organism-based
Genome polyprotein = Genome polyprotein (dengue virus type 2, UniProt P29990); assay: Dengue-2 NS5 methyltransferase inhibitors, primary screen, biochemical, confirmation dose response (AID 588689); assay type: functional
Streptokinase A = biological target: T4, Streptokinase A (Streptococcus pyogenes serotype M1, UniProt P10520); assay: S. pyogenes streptokinase expression inhibitors, potency, dose response, plasminogen activation absorbance, OD405 (AID 1914); assay type: functional, Streptococcus pyogenes M1 GAS;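 also: secreted streptokinase activity via plasminogen activation per viability signal from cell pellet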
T4 sequence (P10520 whole entry): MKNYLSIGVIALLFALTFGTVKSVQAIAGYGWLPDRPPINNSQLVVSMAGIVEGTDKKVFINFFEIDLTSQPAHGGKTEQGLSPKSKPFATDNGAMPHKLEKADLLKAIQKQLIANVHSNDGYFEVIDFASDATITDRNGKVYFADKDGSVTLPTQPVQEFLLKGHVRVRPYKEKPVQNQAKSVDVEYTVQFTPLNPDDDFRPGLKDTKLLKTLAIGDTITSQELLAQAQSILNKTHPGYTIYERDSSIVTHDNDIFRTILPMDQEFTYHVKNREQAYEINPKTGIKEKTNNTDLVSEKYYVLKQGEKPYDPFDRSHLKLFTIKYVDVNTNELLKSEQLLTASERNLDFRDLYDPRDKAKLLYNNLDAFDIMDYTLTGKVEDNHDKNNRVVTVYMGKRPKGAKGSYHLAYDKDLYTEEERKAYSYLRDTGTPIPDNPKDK

DNA topoisomerase = DNA topoisomerase (Yersinia pestis, UniProt A0A2S9PM60); assay: Y. pestis Topo-I inhibitors, cleavage product readout, dose response, biochemical, cherry-pick (AID 588525)
Sequence of DNA topoisomerase (A0A2S9PM60 whole entry): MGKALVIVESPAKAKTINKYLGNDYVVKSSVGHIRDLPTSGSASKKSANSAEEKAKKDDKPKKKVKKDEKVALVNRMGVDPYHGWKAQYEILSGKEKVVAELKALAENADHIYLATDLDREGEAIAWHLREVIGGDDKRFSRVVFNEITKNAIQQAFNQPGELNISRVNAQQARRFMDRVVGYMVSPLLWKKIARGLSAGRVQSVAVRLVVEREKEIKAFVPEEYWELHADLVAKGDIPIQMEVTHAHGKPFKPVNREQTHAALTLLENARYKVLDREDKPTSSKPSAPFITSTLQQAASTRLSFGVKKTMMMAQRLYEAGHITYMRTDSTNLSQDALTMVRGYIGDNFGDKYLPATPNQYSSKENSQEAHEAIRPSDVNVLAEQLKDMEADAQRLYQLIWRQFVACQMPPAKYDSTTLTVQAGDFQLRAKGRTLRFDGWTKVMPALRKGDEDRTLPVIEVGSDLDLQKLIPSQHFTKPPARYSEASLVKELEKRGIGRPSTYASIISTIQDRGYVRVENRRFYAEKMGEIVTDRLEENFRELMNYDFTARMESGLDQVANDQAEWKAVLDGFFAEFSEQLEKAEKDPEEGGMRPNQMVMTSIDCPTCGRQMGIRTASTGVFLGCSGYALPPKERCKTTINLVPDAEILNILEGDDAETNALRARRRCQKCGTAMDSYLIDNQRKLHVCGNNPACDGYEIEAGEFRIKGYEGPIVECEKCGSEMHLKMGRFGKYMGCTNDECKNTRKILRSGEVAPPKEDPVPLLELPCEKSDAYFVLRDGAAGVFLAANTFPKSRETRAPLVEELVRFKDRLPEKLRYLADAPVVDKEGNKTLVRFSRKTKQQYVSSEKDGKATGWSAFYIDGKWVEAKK

Vero = Vero cell cytotoxicity, cytotoxicity control for flavivirus capping enzyme inhibitors (AID 588742); assay type: functional; conditions: Chlorocebus sabaeus
NS3 = NS3 (Hepatitis C virus, UniProt A3EZJ3); assay: PubChem AID 2173; design: species or system Hepacivirus hominis
Streptococcus = assay: Group A Streptococcus viability loss, dose response, counter-screen for streptokinase expression inhibitor project, luminescence, BacTiterGlo (AID 1915); assay type: functional, organism-based;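 also: potency for reduction of bacterial viability or growth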
[8] = biological target: Beta-adrenergic receptor kinase 1 (Homo sapiens, UniProt P25098); assay: aptamer displacement from bead-bound GRK2 – biochemical, cherry pick 1, bead flow cytometry, dose response (AID 504500)
[9] = biological target: T5, Carboxy-terminal domain RNA polymerase II polypeptide A small phosphatase 1 (Homo sapiens, UniProt Q9GZU7); assay: inhibitors of CTDSP1, concentration-response testing, biochemical assay, absorbance-based, actives from ultra-high-throughput screening (AID 540297); assay type: functional
T5 sequence (Q9GZU7 whole entry): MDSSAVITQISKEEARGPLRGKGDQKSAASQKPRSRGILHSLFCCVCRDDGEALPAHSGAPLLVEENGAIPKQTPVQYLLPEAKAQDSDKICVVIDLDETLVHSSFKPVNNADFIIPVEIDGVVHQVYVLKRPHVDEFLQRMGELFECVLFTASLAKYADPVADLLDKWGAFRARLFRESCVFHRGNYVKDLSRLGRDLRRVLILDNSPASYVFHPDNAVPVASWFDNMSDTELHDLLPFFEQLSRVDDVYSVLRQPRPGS

[10] = biological target: 26S proteasome non-ATPase regulatory subunit 14 (Homo sapiens, UniProt O00487); assay: inhibition of proteasome subunit RPN11 – biochemical, fluorescence polarization, uHTS hits, confirmation (AID 602368); assay type: functional
Sequence of 26S proteasome non-ATPase regulatory subunit 14 (O00487 whole entry): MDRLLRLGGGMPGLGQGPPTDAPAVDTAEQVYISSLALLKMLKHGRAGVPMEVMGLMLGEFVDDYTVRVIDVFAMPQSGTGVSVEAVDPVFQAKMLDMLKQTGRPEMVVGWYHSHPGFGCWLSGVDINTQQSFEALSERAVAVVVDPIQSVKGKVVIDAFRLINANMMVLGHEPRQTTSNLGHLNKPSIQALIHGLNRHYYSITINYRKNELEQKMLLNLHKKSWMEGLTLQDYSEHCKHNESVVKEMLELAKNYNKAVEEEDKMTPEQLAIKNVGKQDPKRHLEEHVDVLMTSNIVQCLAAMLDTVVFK

[11] = ADAM10 protease inhibitors, dose response, selectivity assay for ADAM17 exosite inhibitor project, biochemical, FRET peptide substrate, recombinant human ADAM10 (AID 743259);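 also: ADAM10 enzyme cleaving a FRET peptide substrate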
[12] = biological target: 72 kDa type IV collagenase (Homo sapiens, UniProt P08253); assay: Dose Response validation of uHTS RPN11 inhibitor hits using a MMP-2 Fluorescence assay.; assay type: functional
Prothrombin = Prothrombin (Bos taurus, UniProt P00735); assay: thrombin inhibition, dose response, biochemical, fluorescence polarization, uHTS hits (AID 602369); assay type: functional
[13] = biological target: Disintegrin and metalloproteinase domain-containing protein 17 (Homo sapiens, UniProt P78536); assay: exosite inhibitors of ADAM17, dose response, biochemical (AID 743260)
[14] = nonselective inhibitors of cellular cAMP signaling, dose response, counter-screen for MC4R biased antagonist project, cell-based, TR-FRET cAMP detection (AID 602305); assay type: functional;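 also: U2OS cells stimulated with forskolin near its EC80 as the cAMP inducer; potency is for inhibition of forskolin-stimulated cAMP signaling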
Melanocortin receptor 4 = Melanocortin receptor 4 (Homo sapiens, UniProt P32245); assay: MC4R antagonist potency on cAMP, dose response, cell-based, TR-FRET, biased antagonists (AID 602298); assay type: functional;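 also: antagonist potency against agonist-stimulated cAMP production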
[15] = blockers of SFLLRN-triggered platelet ATP secretion – cell-based, human platelets, luminescence, dry powder, dose response (AID 493100); assay type: functional
[16] = Luminescence Cell-Based Dose Response Follow up to Identify Inhibitors of Platelet Dense Granule Release. [Related pubchem assays (depositor defined):AID1663, AID1678, AID2398]; assay type: functional
[17] = biological target: Multidrug resistance protein CDR2 (Candida albicans (strain SC5314 / ATCC MYA-2876) (Yeast), UniProt P78595); assay: CaCDR2 efflux pump inhibitors in yeast, dose response, S. cerevisiae AD1-8u, singleplex, Cherry Pick1 hits (AID 588604); assay type: functional
Sequence of Multidrug resistance protein CDR2 (P78595 whole entry): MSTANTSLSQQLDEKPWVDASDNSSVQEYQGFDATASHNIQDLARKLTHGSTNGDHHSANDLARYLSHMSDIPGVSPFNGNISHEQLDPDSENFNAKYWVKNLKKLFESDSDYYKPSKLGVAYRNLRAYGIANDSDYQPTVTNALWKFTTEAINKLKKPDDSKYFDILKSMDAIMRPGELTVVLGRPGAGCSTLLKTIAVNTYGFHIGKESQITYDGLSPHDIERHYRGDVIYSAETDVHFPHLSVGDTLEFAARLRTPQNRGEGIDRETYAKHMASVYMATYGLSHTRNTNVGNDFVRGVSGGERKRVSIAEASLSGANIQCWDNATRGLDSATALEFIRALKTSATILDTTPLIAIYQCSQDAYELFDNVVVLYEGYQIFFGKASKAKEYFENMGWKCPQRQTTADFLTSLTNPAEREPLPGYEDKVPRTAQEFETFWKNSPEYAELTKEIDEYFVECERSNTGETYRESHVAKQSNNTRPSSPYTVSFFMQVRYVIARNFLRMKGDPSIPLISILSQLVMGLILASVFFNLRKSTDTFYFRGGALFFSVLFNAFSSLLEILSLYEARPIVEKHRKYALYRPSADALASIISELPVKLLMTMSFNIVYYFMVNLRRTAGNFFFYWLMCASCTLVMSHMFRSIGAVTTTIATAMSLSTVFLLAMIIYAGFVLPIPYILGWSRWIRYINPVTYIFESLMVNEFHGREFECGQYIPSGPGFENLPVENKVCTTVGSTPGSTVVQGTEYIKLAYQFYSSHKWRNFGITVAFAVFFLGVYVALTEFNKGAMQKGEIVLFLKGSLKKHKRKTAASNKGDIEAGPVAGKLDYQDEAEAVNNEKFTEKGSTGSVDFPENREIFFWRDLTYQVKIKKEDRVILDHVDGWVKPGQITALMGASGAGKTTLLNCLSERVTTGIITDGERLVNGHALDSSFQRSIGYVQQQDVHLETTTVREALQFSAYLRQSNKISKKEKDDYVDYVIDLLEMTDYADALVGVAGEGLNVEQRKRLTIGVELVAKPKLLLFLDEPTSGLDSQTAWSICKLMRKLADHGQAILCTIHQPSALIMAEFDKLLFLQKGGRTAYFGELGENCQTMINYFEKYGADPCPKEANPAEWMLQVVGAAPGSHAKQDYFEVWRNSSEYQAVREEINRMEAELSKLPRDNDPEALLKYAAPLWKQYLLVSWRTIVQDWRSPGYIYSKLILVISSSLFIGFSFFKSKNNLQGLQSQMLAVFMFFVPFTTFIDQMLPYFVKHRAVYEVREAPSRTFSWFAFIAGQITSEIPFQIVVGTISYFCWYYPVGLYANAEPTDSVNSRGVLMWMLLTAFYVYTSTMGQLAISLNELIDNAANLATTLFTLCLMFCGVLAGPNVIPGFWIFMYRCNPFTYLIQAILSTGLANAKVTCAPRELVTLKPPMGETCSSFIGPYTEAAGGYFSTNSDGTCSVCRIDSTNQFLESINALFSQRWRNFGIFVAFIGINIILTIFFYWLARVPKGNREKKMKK

Phospholipase D1 = Phospholipase D1 (Homo sapiens, UniProt Q13393); assay: PLD1 inhibitor potency in cells, dose response (AID 602151); assay type: functional;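 also: cellular PLD1 assay in Calu-1 cells stimulated with PMA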
Phospholipase D2 = Phospholipase D2 (Homo sapiens, UniProt O14939); assay: PLD2 inhibitor potency in cells, dose response (AID 602147); assay type: functional;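 also: cellular assay in HEK293 cells overexpressing GFP-tagged PLD2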
[18] = biological target: Serine/threonine-protein kinase Chk1 (Homo sapiens, UniProt O14757); assay type: functional;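 also: measured as one member of a kinome-wide kinase profiling panel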
[19] = biological target: Tyrosine-protein kinase JAK2 (Homo sapiens, UniProt O60674); assay type: functional;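 also: JAK2 tested as one member of a kinase panel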
[20] = biological target: Dual specificity mitogen-activated protein kinase kinase 1 (Homo sapiens, UniProt Q02750); assay: Navigating the Kinome. Panel member name: MAP2K1; assay type: functional
[21] = biological target: STE20-like serine/threonine-protein kinase (Homo sapiens, UniProt Q9H2G2); assay type: functional
[22] = biological target: Tyrosine-protein kinase Fer (Homo sapiens, UniProt P16591); assay type: functional;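 also: FER tested as one member of a kinome panel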
Sequence of Tyrosine-protein kinase Fer (P16591 whole entry): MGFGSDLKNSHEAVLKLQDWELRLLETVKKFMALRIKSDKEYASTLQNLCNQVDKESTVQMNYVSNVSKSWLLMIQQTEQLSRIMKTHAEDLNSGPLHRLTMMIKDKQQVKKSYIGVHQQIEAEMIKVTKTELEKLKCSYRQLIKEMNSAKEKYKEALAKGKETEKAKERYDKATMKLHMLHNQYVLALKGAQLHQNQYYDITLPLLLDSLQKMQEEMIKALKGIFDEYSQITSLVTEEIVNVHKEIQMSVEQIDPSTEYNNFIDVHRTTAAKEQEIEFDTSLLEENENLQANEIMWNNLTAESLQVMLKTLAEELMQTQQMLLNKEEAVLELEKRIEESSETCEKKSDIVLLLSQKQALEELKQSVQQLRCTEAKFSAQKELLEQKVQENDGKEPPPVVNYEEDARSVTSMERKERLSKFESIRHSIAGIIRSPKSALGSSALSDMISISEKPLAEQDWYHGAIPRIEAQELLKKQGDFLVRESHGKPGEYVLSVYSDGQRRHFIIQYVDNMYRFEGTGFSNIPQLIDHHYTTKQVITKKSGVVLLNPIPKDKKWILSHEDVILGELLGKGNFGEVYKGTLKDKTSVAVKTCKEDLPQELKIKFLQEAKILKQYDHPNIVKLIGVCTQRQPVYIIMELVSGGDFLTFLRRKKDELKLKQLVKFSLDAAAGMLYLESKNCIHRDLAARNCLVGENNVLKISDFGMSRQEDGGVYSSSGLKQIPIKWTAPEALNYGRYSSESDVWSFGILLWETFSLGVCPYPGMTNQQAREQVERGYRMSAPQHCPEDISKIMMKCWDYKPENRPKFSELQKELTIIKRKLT

[23] = biological target: Tyrosine-protein kinase BTK (Homo sapiens, UniProt Q06187); assay type: functional
[24] = biological target: Fibroblast growth factor receptor 3 (Homo sapiens, UniProt P22607); assay type: functional
[25] = biological target: Dual specificity mitogen-activated protein kinase kinase 2 (Homo sapiens, UniProt P36507); assay: Navigating the Kinome. Panel member name: MAP2K2; assay type: functional
[26] = biological target: 5'-AMP-activated protein kinase catalytic subunit alpha-1 (Homo sapiens, UniProt Q13131); assay type: functional
[27] = biological target: T6, Sphingosine 1-phosphate receptor 4 (Homo sapiens, UniProt O95977); assay: Late-stage fluorescence-based dose-response cell-based counterscreen assay to identify agonists of the Sphingosine 1-Phosphate Receptor 3 (S1P3): Sphingosine 1-Phosphate Receptor 4 (S1P4) agonist assay.; assay type: functional
T6 sequence (O95977 whole entry): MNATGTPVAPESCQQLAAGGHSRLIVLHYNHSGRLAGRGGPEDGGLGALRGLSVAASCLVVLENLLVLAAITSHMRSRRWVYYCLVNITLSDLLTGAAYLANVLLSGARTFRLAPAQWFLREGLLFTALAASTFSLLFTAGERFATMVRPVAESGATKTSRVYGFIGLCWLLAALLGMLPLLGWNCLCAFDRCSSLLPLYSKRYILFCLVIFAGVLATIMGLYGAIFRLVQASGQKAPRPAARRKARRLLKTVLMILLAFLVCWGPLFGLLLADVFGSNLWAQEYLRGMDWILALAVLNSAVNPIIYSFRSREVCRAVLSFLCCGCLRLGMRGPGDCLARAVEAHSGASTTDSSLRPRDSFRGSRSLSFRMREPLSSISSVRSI

[28] = biological target: Sphingosine 1-phosphate receptor 2 (Homo sapiens, UniProt O95136); assay: Late-stage fluorescence-based dose-response cell-based counterscreen assay to identify agonists of the Sphingosine 1-Phosphate Receptor 3 (S1P3): Sphingosine 1-Phosphate Receptor 2 (S1P2) agonist assay.; assay type: functional
[29] = biological target: T7, V-type proton ATPase subunit c' (Saccharomyces cerevisiae S288c, UniProt P32842); assay: Dose Response with BCECF Assay for V-ATPase inhibitors that increase vacuolar pH, Powder Set 1.; assay type: functional; conditions: read-out: EC50_MICROM
T7 sequence (P32842 whole entry): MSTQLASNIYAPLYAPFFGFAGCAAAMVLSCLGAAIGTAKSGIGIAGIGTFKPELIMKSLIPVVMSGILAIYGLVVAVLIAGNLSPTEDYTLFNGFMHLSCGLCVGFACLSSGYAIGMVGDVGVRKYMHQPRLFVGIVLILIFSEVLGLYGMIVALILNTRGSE

[30] = biological target: T7, V-type proton ATPase subunit c'; assay: Dose Response of Small Molecules that Regulate V-ATPase Proton Transport in Yeast using pHLuorin, Powder Set1.; assay type: functional; conditions: read-out: EC50_MICROM

T1 sequence (Q9GZV3 whole entry): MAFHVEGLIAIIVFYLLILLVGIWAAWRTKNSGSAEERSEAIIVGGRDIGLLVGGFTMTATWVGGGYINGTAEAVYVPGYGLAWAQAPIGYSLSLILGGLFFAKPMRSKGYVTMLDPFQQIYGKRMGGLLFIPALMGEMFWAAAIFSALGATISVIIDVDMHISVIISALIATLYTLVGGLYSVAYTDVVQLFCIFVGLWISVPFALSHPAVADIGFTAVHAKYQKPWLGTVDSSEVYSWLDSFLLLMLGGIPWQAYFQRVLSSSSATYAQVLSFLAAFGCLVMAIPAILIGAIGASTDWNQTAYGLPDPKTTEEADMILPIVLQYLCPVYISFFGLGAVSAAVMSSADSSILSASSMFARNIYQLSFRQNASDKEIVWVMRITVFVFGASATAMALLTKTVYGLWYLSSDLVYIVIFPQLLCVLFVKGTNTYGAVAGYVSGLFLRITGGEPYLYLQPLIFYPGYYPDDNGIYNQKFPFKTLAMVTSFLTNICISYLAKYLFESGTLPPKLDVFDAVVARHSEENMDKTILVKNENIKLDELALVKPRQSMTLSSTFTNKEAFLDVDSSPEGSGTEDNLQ

Compound: CCCCC1C(=O)CC[C@H]2[C@@H]1CC(=O)[C@@H]2C/C=C\CCCC(=O)O (stereo partly specified)
- IC50 [1]: 2.38 µM (active)
- IC50 [2]: 2.13 µM (active)

Compound: CCCn1c(=O)c2ccccc2n2c(=S)[nH]nc12
- IC50 [3]: > 99 µM (inactive)
- IC50 [4]: 2.87 µM (active)
- IC50 [5]: > 100 µM (inactive)
- IC50 [6]: > 99 µM (inactive)
- IC50 (Large T antigen): 18.2 µM (active)

Compound: CCCOc1ccc(C(=O)C2=C(O)C(=O)N(c3ccccn3)C2c2ccc(OC)cc2)cc1C (stereo unspecified)
- EC50 [7]: 3.78 µM (active)
- IC50 (Genome polyprotein): 74.3 µM (active)
- EC50 (Streptokinase A): 103 µM (active)
- AC50 (DNA topoisomerase): 5.07 µM (active)
- CC50 (Vero): > 40 µM (active)
- IC50 (NS3): 5.74 µM (active)
- EC50 (Streptococcus): 38.6 µM (active)

Compound: O=C(O)C1CC(=O)N(c2ccc3c(c2)OCCO3)C1 (stereo unspecified)
- EC50 [8]: 30.9 µM (inactive)
- IC50 [9]: 6.73 µM (active)

Compound: O=C(NN=Cc1ccc(N(CCCl)CCCl)cc1)C(=O)c1c[nH]c2ccccc12
- IC50 [10]: 25.5 µM (active)
- IC50 [11]: > 69.5 µM (inactive)
- IC50 [12]: > 100 µM (inactive)
- IC50 (Prothrombin): 45.1 µM (active)
- IC50 [13]: > 69.5 µM (inactive)
- IC50 [14]: > 64.6 µM (inactive)
- IC50 (Melanocortin receptor 4): > 64.6 µM (inactive)

Compound: Cc1ccc(-c2c(C#N)c(N)n(-c3ccccc3C)c(=O)c2C#N)cc1
- AC50 [15]: 12.6 µM (active)
- EC50 [16]: 2.03 µM (active)

Compound: COc1ccc2c(-c3ccc(OCCN4CCOCC4)cc3)c(-c3ccccc3OC)sc2c1
- EC50 [17]: 13.3 µM (active)

Compound: Cn1c(=O)n(C2CCN(CCNC(=O)c3ccc4ccccc4c3)CC2)c2ccccc21
- IC50 (Phospholipase D1): 1.5 µM (active)
- IC50 (Phospholipase D2): 1.9 µM (active)

Compound: COc1cc(OC)nc(N2Cc3ccccc3CC2C(=O)O)n1 (stereo unspecified)
- Ki [18]: 0.794 µM (active)
- Ki [19]: 2.51 µM (active)

Compound: Cc1cc(Nc2cc(N3CCN(C)CC3)nc(C=Cc3ccccc3)n2)n[nH]1
- Ki [20]: 0.501 µM (active)
- Ki [21]: 0.501 µM (active)
- Ki [22]: 0.316 µM (active)
- Ki [23]: 0.501 µM (active)
- Ki [24]: 0.1 µM (active)
- Ki [25]: 0.316 µM (active)
- Ki [26]: 0.501 µM (active)

Compound: COc1ccc(-c2cc(C(=O)N(C3CCCCC3)C3CCCCC3)no2)cc1
- EC50 [27]: > 50 µM (inactive)
- EC50 [28]: > 50 µM (inactive)

Compound: O=C(c1ccc([N+](=O)[O-])o1)N1CCN(c2cccc(Cl)c2)CC1
- EC50 [29]: 1.25 µM (active)
- EC50 [30]: 12.4 µM (active)
